Laboratory results as given in patent US8791132B2, “Compounds and methods for treatment of hypertension” (Medivation Technologies, Inc., priority 2011, dated 2014).

Assays:
[1] = biological target: T1, human recombinant adrenergic α2A receptor (Homo sapiens, UniProt P08913); assay: Radioligand binding, adrenergic α2A ([3H]MK-912); details: compound at 0.1 μM; [3H]MK-912; repeat datapoints each shown; 0.1 µM
T1 construct: expressed in transfected cells; host or cells: insect Sf9 cells
T1 sequence (P08913 1-465): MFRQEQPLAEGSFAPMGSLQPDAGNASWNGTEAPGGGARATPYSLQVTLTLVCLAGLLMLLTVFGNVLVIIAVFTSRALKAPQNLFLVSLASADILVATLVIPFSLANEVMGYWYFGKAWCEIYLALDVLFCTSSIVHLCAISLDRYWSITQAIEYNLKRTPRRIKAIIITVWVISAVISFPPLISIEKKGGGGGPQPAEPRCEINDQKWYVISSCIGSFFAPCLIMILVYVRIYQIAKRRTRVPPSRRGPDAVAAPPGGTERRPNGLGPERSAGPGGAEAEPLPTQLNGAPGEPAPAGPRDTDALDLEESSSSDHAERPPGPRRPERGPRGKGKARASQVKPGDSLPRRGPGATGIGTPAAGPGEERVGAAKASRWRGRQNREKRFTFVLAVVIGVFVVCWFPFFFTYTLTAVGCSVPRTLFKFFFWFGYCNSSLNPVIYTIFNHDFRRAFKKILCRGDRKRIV
Outline: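 Receptor expressed in insect Sf9 cells, assayed in 50 mM Tris-HCl pH 7.4 with 12.5 mM MgCl2 and 2 mM EDTA. Compounds incubated with 1 nM [3H]MK-912 for 60 min at 25 °C; nonspecific binding defined with 10 μM WB-4101. Filter-bound radioactivity counted; values are percent inhibition of specific binding.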

[2] = biological target: T2, rat adrenergic α1B receptor (Rattus norvegicus, UniProt P15823); assay: Radioligand binding, adrenergic α1B ([3H]Prazosin); details: [3H]Prazosin, repeat datapoints each shown; for Percentage inhibition of ligand binding, Adrenergic α1B (0.1 μM): compound at 0.1 μM
T2 construct: rat adrenergic α1B receptor obtained from Wistar Rat liver; from tissue; host or cells: Wistar rat liver
T2 sequence (P15823 1-515): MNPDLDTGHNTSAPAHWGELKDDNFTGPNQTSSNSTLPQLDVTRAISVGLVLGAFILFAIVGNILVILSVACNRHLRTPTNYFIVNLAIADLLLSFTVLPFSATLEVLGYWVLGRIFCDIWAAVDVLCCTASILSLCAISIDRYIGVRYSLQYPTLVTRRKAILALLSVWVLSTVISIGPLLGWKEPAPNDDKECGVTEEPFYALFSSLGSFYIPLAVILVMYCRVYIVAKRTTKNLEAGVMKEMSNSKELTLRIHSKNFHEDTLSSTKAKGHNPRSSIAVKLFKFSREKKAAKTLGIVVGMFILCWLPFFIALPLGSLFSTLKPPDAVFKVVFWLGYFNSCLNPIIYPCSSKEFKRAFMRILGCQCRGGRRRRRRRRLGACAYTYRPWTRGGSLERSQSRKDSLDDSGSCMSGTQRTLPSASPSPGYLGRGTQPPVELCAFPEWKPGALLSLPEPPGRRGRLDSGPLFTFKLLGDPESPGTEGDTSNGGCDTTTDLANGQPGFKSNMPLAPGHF
Outline: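 Incubation ran 60 min at 25 °C in Tris-HCl buffer (50 mM, pH 7.4, 0.5 mM EDTA) with Wistar rat liver α1B receptor. 10 μM phentolamine set non-specific binding.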

[3] = biological target: T3, human recombinant adrenergic α2B receptor (Homo sapiens, UniProt P18089); assay: Radioligand binding, adrenergic α2B ([3H]Rauwolscine); details: compound at 0.03 μM; [3H]Rauwolscine; repeat datapoints each shown; 0.03 µM
T3 construct: expressed in transfected cells; host or cells: CHO-K1
T3 sequence (P18089 1-450): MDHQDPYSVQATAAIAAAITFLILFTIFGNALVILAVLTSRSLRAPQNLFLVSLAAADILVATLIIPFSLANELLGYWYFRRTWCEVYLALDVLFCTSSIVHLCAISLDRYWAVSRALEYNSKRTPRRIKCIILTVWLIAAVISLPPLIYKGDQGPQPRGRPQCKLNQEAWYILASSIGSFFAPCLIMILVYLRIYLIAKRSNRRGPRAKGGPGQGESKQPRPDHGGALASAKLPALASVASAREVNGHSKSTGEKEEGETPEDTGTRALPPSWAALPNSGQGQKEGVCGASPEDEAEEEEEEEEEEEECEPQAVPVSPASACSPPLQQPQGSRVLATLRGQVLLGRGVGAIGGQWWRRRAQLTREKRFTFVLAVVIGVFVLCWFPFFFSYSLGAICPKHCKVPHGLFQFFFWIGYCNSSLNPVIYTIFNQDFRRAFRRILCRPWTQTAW
Outline: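 Membranes from CHO-K1 cells expressing human recombinant α2B, in 50 mM Tris-HCl pH 7.4, 12.5 mM MgCl2, 1 mM EDTA, 0.2% BSA, incubated with compound and 2.5 nM [3H]Rauwolscine, 60 min, 25 °C.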

| Percentage inhibition of ligand binding, Adrenergic α2A (0.1 μM) [1] [%] | inhibition at 0.1 µM ([2]; read-out: Percentage inhibition of ligand binding, Adrenergic α1B (0.1 μM), compound at 0.1 μM) [%] | Percentage inhibition of ligand binding, Adrenergic α2B (0.03 μM) [3] [%] | Percentage inhibition of ligand binding, Adrenergic α1B (0.1 μM) [2] [%] | Structure (SMILES) |
| --- | --- | --- | --- | --- |
| 1 | 11 | 27 | – | Cc1ccc2c(c1)c1c(n2CC(C)(O)c2cccnc2)C(O)CN(C)C1 (single isomer, unassigned) [II-151a] |
| 11 | – | 78 | 13 | Cc1ccc2c(c1)c1c(n2CC(C)(O)c2cccnc2)C(O)CN(C)C1 (single isomer, unassigned) [II-151b] |
| 6 | – | 61 | 2 | Cc1ccc2c(c1)c1c(n2CC(C)(O)c2cccnc2)CCN(C)C1C (single isomer, unassigned) [II-152b] |
| 1 | – | 14 | 6 | Cc1ccc2c(c1)c1c(n2CC(C)(O)c2cccnc2)CCN(C)C1C (single isomer, unassigned) [II-152c] |
| 15 | – | 86 | 25 | Cc1ccc2c(c1)c1c(n2CC(CC(O)C(C)(C)C)c2ccncc2)CCN(C)C1 (single isomer, unassigned) [II-227a, 6-(2,8-dimethyl-1,2,3,4-tetrahydro-pyrido[4,3-b]indol-5-yl)-2,2-dimethyl-5-pyridin-4-yl-hexan-3-ol] |
| 6 | – | 18 | 8 | Cc1ccc2c(c1)c1c(n2CC(CC(O)C(C)(C)C)c2ccncc2)CCN(C)C1 (single isomer, unassigned) [II-227b, 6-(2,8-dimethyl-1,2,3,4-tetrahydro-pyrido[4,3-b]indol-5-yl)-2,2-dimethyl-5-pyridin-4-yl-hexan-3-ol] |
| 24 | – | 94 | 20 | Cc1ccc2c(c1)c1c(n2CC(CC(O)C(C)(C)C)c2ccncc2)CCN(C)C1 (single isomer, unassigned) [II-227c, 6-(2,8-dimethyl-1,2,3,4-tetrahydro-pyrido[4,3-b]indol-5-yl)-2,2-dimethyl-5-pyridin-4-yl-hexan-3-ol] |
| 6 | – | 26 | 12 | Cc1ccc2c(c1)c1c(n2CC(CC(O)C(C)(C)C)c2ccncc2)CCN(C)C1 (single isomer, unassigned) [II-227d, 6-(2,8-dimethyl-1,2,3,4-tetrahydro-pyrido[4,3-b]indol-5-yl)-2,2-dimethyl-5-pyridin-4-yl-hexan-3-ol] |
| 22 | – | 102 | 95 | Cc1cnc2c(c1)c1c(n2CCc2ccncc2)CCN2CCCC12 (single isomer, unassigned) [II-244a, 9-methyl-6-(2-pyridin-4-yl-ethyl)-2,3,4,5,6,10c-hexahydro-1H-3a,6,7-triaza-cyclopenta[c]fluorene] |
| 2 | – | 16 | 12 | Cc1cnc2c(c1)c1c(n2CCc2ccncc2)CCN2CCCC12 (single isomer, unassigned) [II-244b, 9-methyl-6-(2-pyridin-4-yl-ethyl)-2,3,4,5,6,10c-hexahydro-1H-3a,6,7-triaza-cyclopenta[c]fluorene] |
